Laboratory results published in patent publication US20220152214A1, “CANCER TREATMENT WITH ROR1 ANTIBODY IMMUNOCONJUGATES” (VelosBio Inc., priority 2019, published 2022).
Where a SMILES comes first, the peptide text is derived from it. [ ]: non-standard residue; d: D form. The star is where a group is joined. Dolaproine = CO[C@@H]([C@@H]1CCCN1)[C@@H](C)C(=O)O; Dil = CC[C@H](C)[C@H](NC)[C@@H](CC(=O)O)OC; X1 = C[C@@H](N*)[C@@H](O)c1ccccc1; NMeV = CN[C@H](C(=O)O)C(C)C

Assay: Plasma pharmacokinetics of total antibody, total ADC-A and MMAE after ADC-A IV infusion
Type: in vivo, human
Parameters: Cmax/Dose / AUClast/Dose: unit not given beside the values
Details: plasma analyte = label
Description: The following describes a protocol for evaluating the safety, pharmacokinetics, pharmacodynamics, immunogenicity, and efficacy of a ROR1 immunoconjugate (ADC-A) across a range of dose levels when administered to subjects with previously treated relapsed or refractory CLL/SLL, MCL, FL, MZL, DLBCL, RTL, BL, LPL/WM, T cell NHL, ALL, or AML. ADC-A is administered intravenously (IV) in repeated 3-week cycles with a drug infusion on Day 1 of each cycle (Q1/3W [Schedule 1]); in repeated 3-week cycles with drug infusions on Days 1 and 8 of each cycle (Q2/3W [Schedule 2]); or in repeated 4-week cycles with drug infusions on Days 1, 8, and 15 of each cycle (Q3/4W [Schedule 3]) over a planned infusion time of ˜30 minutes. Infusion times may be extended as necessary to accommodate individual subject tolerance of treatment.

[1] = after ADC-A 0.5 mg/kg IV Q1/3W (n = 1)
[2] = after ADC-A 1.0 mg/kg IV Q1/3W (n = 3)
[3] = after ADC-A 1.5 mg/kg IV Q1/3W (n = 3)
[4] = after ADC-A 2.25 mg/kg IV Q1/3W (n = 9)
[5] = after ADC-A 2.5 mg/kg IV Q1/3W (n = 4)

Question: Which results are given for `CC[C@H](C)[C@@H]([C@@H](CC(=O)N1CCC[C@H]1[C@H](OC)[C@@H](C)C(=O)N[C@H](C)[C@@H](O)c1ccccc1)OC)N(C)C(=O)[C@@H](NC(=O)[C@@H](NC)C(C)C)C(C)C` [MMAE, monomethyl auristatin E] (H-[NMeV]V[Dil][Dolaproine]-X1)?
Answer: Increases in Cmax and AUC with dose (ADC-A 0.5 to 2.5 mg/kg IV Q1/3W): somewhat less than dose-proportional; AUClast [1]: 271 ng·h/mL; AUClast/Dose [1]: 0.5420; Cmax [1]: 1.15 ng/mL; Cmax/Dose [1]: 0.0023; Tmax [1]: 48 h; AUClast [2]: 467 ng·h/mL; AUClast/Dose [2]: 0.4673; Cmax [2]: 2.66 ng/mL; Cmax/Dose [2]: 0.0027; Tmax [2]: 48 h; AUClast [3]: 390 ng·h/mL; AUClast/Dose [3]: 0.2600; Cmax [3]: 1.66 ng/mL; Cmax/Dose [3]: 0.0011; Tmax [3]: 88.7 h; AUClast [4]: 698 ng·h/mL; AUClast/Dose [4]: 0.3102; Cmax [4]: 4.43 ng/mL; Cmax/Dose [4]: 0.0020; Tmax [4]: 75.1 h; AUClast [5]: 994.8 ng·h/mL; AUClast/Dose [5]: 0.3979; Cmax [5]: 6.7 ng/mL; Cmax/Dose [5]: 0.0027; Tmax [5]: 78.5 h
